In brackets after ≈: the same amount, converted by molar mass. Activity calls are given as the source filed them. No cut-off for these calls is given here.
Columns and labels:
Format in all cases: functional
Rattus norvegicus [1] = experiment: Antiinflammatory activity in Wistar albino rat assessed as inhibition of carrageenan-induced paw edema at 40 mg/kg, po administered 1 hr prior to carrageenan challenge measured 1 hr post carrageenan challenge relative to control
Staphylococcus aureus = experiment: Antibacterial activity against Staphylococcus aureus ATCC 25923 after 2 days by microdilution broth method; settings: ATCC 25923, 48 h
Candida albicans = experiment: Antifungal activity against Candida albicans ATCC 10231 after 2 days by microdilution broth method; settings: ATCC 10231, 48 h
Escherichia coli = experiment: Antibacterial activity against Escherichia coli ATCC 25922 after 2 days by microdilution broth method; settings: ATCC 25922, 48 h
Aspergillus niger = experiment: Antifungal activity against Aspergillus niger ATCC 9029 after 2 days by microdilution broth method; settings: ATCC 9029, 48 h
Rattus norvegicus [2] = experiment: Antiinflammatory activity in Wistar albino rat assessed as inhibition of carrageenan-induced paw edema at 40 mg/kg, po administered 1 hr prior to carrageenan challenge measured 4 hrs post carrageenan challenge relative to control
Rattus norvegicus [3] = experiment: Antiinflammatory activity in Wistar albino rat assessed as inhibition of carrageenan-induced paw edema at 40 mg/kg, po administered 1 hr prior to carrageenan challenge measured 2 hrs post carrageenan challenge relative to control

Row | SMILES | inhibition in vivo at 40 mg/kg (Rattus norvegicus [1]) | MIC (Staphylococcus aureus) | MIC (Candida albicans) | MIC (Escherichia coli) | MIC (Aspergillus niger) | inhibition in vivo at 40 mg/kg (Rattus norvegicus [2]) | inhibition in vivo at 40 mg/kg (Rattus norvegicus [3]) | inhibition (Rattus norvegicus [1]) | inhibition (Rattus norvegicus [2]) | inhibition (Rattus norvegicus [3])
1 | Cc1ccc(N2C(=O)CSC2c2sc(-c3ccc(Cl)cc3)nc2C)cc1 (configuration not stated) | 38.3% | 31.2 µM (≈ 12.5 µg/mL) | 15.6 µM (≈ 6.25 µg/mL) | 31.2 µM (≈ 12.5 µg/mL) | 31.2 µM (≈ 12.5 µg/mL) | 63.9% | 37.6% |  |  | 
2 | Cc1ccc(N2C(=O)CSC2c2sc(-c3ccccc3)nc2C)cc1 (configuration not stated) | 58.1% | 121 µM (≈ 44.3 µg/mL) | 30.2 µM (≈ 11.1 µg/mL) | 60.4 µM (≈ 22.1 µg/mL) | 30.2 µM (≈ 11.1 µg/mL) | 80.6% | 60.1% |  |  | 
3 | COc1ccc(N2C(=O)CSC2c2sc(Cc3ccc(Cl)cc3)nc2C)cc1 (configuration not stated) | 20.9% | 58 µM (≈ 25 µg/mL) | 14.5 µM (≈ 6.25 µg/mL) | 58 µM (≈ 25 µg/mL) | 14.5 µM (≈ 6.25 µg/mL) | 55.9% | 28.6% |  |  | 
4 | Cc1ccc(N2C(=O)CSC2c2sc(Cc3ccc(Cl)cc3)nc2C)cc1 (configuration not stated) | 59.9% | 60.2 µM (≈ 25 µg/mL) | 30.1 µM (≈ 12.5 µg/mL) | 60.2 µM (≈ 25 µg/mL) | 15.1 µM (≈ 6.25 µg/mL) | 81.3% | 61.4% |  |  | 
5 | Cc1nc(Cc2ccc(Cl)cc2)sc1C1SCC(=O)N1c1ccc(Cl)cc1 (configuration not stated) | 48.9% | 28.7 µM (≈ 12.5 µg/mL) | 28.7 µM (≈ 12.5 µg/mL) | 57.4 µM (≈ 25 µg/mL) | 28.7 µM (≈ 12.5 µg/mL) | 53.9% | 40.1% |  |  | 
6 | Cc1nc(-c2ccccc2)sc1C1SCC(=O)N1c1ccccc1 (configuration not stated) | 44.4% | 70.9 µM (≈ 25 µg/mL) | 142 µM (≈ 50 µg/mL) | 70.9 µM (≈ 25 µg/mL) | 142 µM (≈ 50 µg/mL) | 63.7% | 50.6% |  |  | 
7 | Cc1nc(-c2ccccc2)sc1C1SCC(=O)N1c1ccc(F)cc1 (configuration not stated) | 63.9% | 67.5 µM (≈ 25 µg/mL) | 33.7 µM (≈ 12.5 µg/mL) | 33.7 µM (≈ 12.5 µg/mL) | 33.7 µM (≈ 12.5 µg/mL) | 85.3% | 63.4% |  |  | 
8 | Cc1nc(-c2ccc(Cl)cc2)sc1C1SCC(=O)N1c1ccc(Cl)cc1 (configuration not stated) | 69.3% | 59.3 µM (≈ 25 µg/mL) | 119 µM (≈ 50 µg/mL) | 29.7 µM (≈ 12.5 µg/mL) | 119 µM (≈ 50 µg/mL) | 43.1% | 45.7% |  |  | 
9 | Cc1nc(-c2ccccc2)sc1C1SCC(=O)N1c1ccc(F)c(Cl)c1 (configuration not stated) | 55.9% | 61.7 µM (≈ 25 µg/mL) | 123 µM (≈ 50 µg/mL) | 61.7 µM (≈ 25 µg/mL) | 123 µM (≈ 50 µg/mL) | 28.6% | 20.9% |  |  | 
10 | Cc1nc(-c2ccc(Cl)cc2)sc1C1SCC(=O)N1c1ccc(F)cc1 (configuration not stated) | 63.4% | 30.9 µM (≈ 12.5 µg/mL) | 30.9 µM (≈ 12.5 µg/mL) | 15.4 µM (≈ 6.25 µg/mL) | 61.7 µM (≈ 25 µg/mL) | 67.6% | 63.9% |  |  | 
11 | Cc1nc(-c2ccccc2)sc1C1SCC(=O)N1c1ccc(Cl)cc1 (configuration not stated) | 54.8% | 129 µM (≈ 50 µg/mL) | 129 µM (≈ 50 µg/mL) | 64.6 µM (≈ 25 µg/mL) | 129 µM (≈ 50 µg/mL) | 80.8% | 59.1% |  |  | 
12 | COc1ccc2c(c1)c(CC(=O)O)c(C)n2C(=O)c1ccc(Cl)cc1 [INDOMETHACIN] | 70.2% |  |  |  |  | 87.3% | 78.3% |  |  | 
13 | COc1ccc(N2C(=O)CSC2c2sc(-c3ccccc3)nc2C)cc1 (configuration not stated) | 52.3% | 65.5 µM (≈ 25.1 µg/mL) | 32.8 µM (≈ 12.5 µg/mL) | 65.5 µM (≈ 25.1 µg/mL) | 32.8 µM (≈ 12.5 µg/mL) | 67.1% | 48.1% |  |  | 
14 | Cc1nc(Cc2ccc(Cl)cc2)sc1C1SCC(=O)N1c1ccc(F)cc1 (configuration not stated) |  | 59.7 µM (≈ 25 µg/mL) | 14.9 µM (≈ 6.25 µg/mL) | 59.7 µM (≈ 25 µg/mL) | 14.9 µM (≈ 6.25 µg/mL) |  |  |  |  | 
15 | O=C(O)c1cn(C2CC2)c2cc(N3CCNCC3)c(F)cc2c1=O [CIPROFLOXACIN] |  | 4.7 µM (≈ 1.56 µg/mL) |  | 2.35 µM (≈ 0.779 µg/mL) |  |  |  |  |  | 
16 | OC(Cn1cncn1)(Cn1cncn1)c1ccc(F)cc1F [FLUCONAZOLE] |  |  | 2.55 µM (≈ 0.781 µg/mL) |  | 5.09 µM (≈ 1.56 µg/mL) |  |  |  |  | 
17 | COc1ccc(N2C(=O)CSC2c2sc(-c3ccc(Cl)cc3)nc2C)cc1 (configuration not stated) | 54% | 30 µM (≈ 12.5 µg/mL) | 30 µM (≈ 12.5 µg/mL) | 30 µM (≈ 12.5 µg/mL) | 30 µM (≈ 12.5 µg/mL) | 59.1% | 80.7% |  |  | 
18 | Cc1nc(Cc2ccc(Cl)cc2)sc1C1SCC(=O)N1c1ccccc1 (configuration not stated) |  | 67.8 µM (≈ 27.2 µg/mL) | 33.9 µM (≈ 13.6 µg/mL) | 67.8 µM (≈ 27.2 µg/mL) | 33.9 µM (≈ 13.6 µg/mL) |  |  | inactive | inactive | inactive
19 | Cc1nc(-c2ccc(Cl)cc2)sc1C1SCC(=O)N1c1ccccc1 (configuration not stated) |  | 32.3 µM (≈ 12.5 µg/mL) | 129 µM (≈ 50 µg/mL) | 32.3 µM (≈ 12.5 µg/mL) | 129 µM (≈ 50 µg/mL) |  |  |  |  | 
20 | Cc1nc(-c2ccc(Cl)cc2)sc1C1SCC(=O)N1c1ccc(F)c(Cl)c1 (configuration not stated) | 53.4% | 56.9 µM (≈ 25 µg/mL) | 114 µM (≈ 50 µg/mL) | 56.9 µM (≈ 25 µg/mL) | 114 µM (≈ 50 µg/mL) | 65.1% | 45.1% |  |  | 
21 | Cc1nc(Cc2ccc(Cl)cc2)sc1C1SCC(=O)N1c1ccc(F)c(Cl)c1 (configuration not stated) | 40.7% | 55.1 µM (≈ 25 µg/mL) | 27.6 µM (≈ 12.5 µg/mL) | 55.1 µM (≈ 25 µg/mL) | 27.6 µM (≈ 12.5 µg/mL) | 68.9% | 45.1% |  |  | 

Source: ChEMBL document CHEMBL2146439, “Synthesis and pharmacological evaluation of a novel series of 3-aryl-2-(2-substituted-4-methylthiazole-5-yl)thiazolidin-4-one as possible anti-inflammatory and antimicrobial agents” (2012)
